Source: patent US8551721B2, “Bioluminescent detection of cyanohydroxy benzothiazole compounds” (Promega Corporation, priority 2008, dated 2013)
pEC50, pIC50: −log10 of the molar value.

Columns and labels:
UGT isozymes = conditions: cited from earlier work
UGT 1A1 = molecular target: T1, UGT 1A1 (Homo sapiens, UniProt P22309); assay: Inhibition of recombinant UGT 1A1 supersomes by diclofenac, probe compound 3138; format: biochemical; conditions: 0.1 mg/mL Supersomes, 20 μM compound 3138, 90 minutes at 37° C.
T1 construct: purchased BD Gentest; host or cells: insect cells (microsomes)
T1 sequence (P22309 26-533): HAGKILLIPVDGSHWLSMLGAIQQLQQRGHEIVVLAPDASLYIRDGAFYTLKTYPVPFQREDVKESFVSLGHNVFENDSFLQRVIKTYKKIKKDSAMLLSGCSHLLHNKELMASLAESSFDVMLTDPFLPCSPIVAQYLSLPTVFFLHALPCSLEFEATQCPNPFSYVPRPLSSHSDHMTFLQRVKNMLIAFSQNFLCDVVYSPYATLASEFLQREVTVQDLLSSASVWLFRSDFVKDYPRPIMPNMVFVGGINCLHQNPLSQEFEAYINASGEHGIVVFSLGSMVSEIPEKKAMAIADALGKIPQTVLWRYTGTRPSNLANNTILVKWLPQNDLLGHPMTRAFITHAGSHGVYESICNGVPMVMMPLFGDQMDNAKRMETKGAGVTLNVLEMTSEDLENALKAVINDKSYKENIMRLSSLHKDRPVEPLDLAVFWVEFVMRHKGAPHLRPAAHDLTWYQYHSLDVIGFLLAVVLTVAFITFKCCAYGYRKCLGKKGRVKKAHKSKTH
Experimental: The invention includes a method of determining activity of the uridine 5′-diphospho-glucuronosyltransferase (UDP-glucuronosyltransferase, or UGT) family enzymes in vitro. […] Following the UGT enzyme reaction, an equal volume of P450-Glo Luciferin Detection Reagent (Promega) containing 15-30 mM D-cysteine-HCl.H2O (Sigma) was added and the plate was mixed and incubated at room temperature, typically for 20-30 minutes. P450-Glo Luciferin Detection Reagent can be prepared by dissolving a vial of Promega Luciferin Detection Reagent (Promega Part #V859B) with a vial of Promega P450-Glo Buffer (Promega Part #V865B).
(§1) During this incubation, the cysteine reacts with the cyanobenzathiozole substrate to yield a D-luciferin derivative. […] Therefore, activity of the UGT enzyme can be measured by analyzing the difference (lower or no output) in relative light units (RLU) of a sample in which glucuronidation occurs compared to a sample that was run under the same conditions with no added UDPGA cofactor.

[1] = test system: UGT activity in human liver microsomes (HLM); assay: Inhibition of UGT activity in human liver microsomes by diclofenac (titration), probe compound 3138; format: biochemical; conditions: 0.1 mg/mL HLM, 50 μM compound 3138, 15 minutes at 37° C.; read-out: EC50, inhibition of HLM utilization of compound 3138
Experimental: The invention includes a method of determining activity of the uridine 5′-diphospho-glucuronosyltransferase (UDP-glucuronosyltransferase, or UGT) family enzymes in vitro. Briefly, UGT enzymes from overexpressed insect microsomes (Supersomes™, BD Gentest™) or animal tissue microsomes (Xenotech, BD Gentest™) were incubated with a cyanobenzothiazole substrate of the invention and the cofactor UDP-glucuronic acid (UDPGA) at 37° C. in buffer at physiological pH containing MgCl2 and alamethicin (typically, 50 mM TES, pH 7.5, 8 mM MgCl2, 4 mM UDPGA (Sigma) and 25 μg/mL alamethicin (Sigma)). […]
as §1
All reactions contained 50 mM TES, pH 7.5, 8 mM MgCl2, 25 μg/mL alamethicin, 0.1 mg/mL HLM, and 50 μM compound 3138, plus or minus 4 mM UDPGA. […] After 20 minutes at room temperature, RLU were read on a luminometer.

O=C(O)Cc1ccccc1Nc1c(Cl)cccc1Cl [Diclofenac]
Isozymes Modulated (UGT isozymes; isozymes currently reported in the literature to be modulated by the compound): Inhibits most isozymes
inhibition of UGT isozymes as reported in the literature (UGT isozymes; literature report): reported to inhibit UGT 1A1, 1A3, 1A6, 1A7, 1A8, 1A9, 1A10, 2B7, 2B15, and 2B17
pIC50 (UGT 1A1): 3.63
pEC50 [1]: 4.22
